Results reported in ChEMBL document CHEMBL1135110, “Structure-based design of peptidomimetic antagonists of p56(lck) SH2 domain” (Bioorg Med Chem Lett, 2002).
Non-standard residues stand in square brackets, D forms with d. Residues, ends and D or L forms follow the SMILES beside them. pY = N[C@@H](Cc1ccc(OP(=O)(O)O)cc1)C(=O)O

Target: Tyrosine-protein kinase Lck (Homo sapiens, UniProt P06239)
Test: Inhibitory activity towards p56 Lck tyrosine kinase SH2 domain using scintillation proximity assay (SPA)

Sequence of Tyrosine-protein kinase Lck (P06239 whole entry, the tested form may be a part): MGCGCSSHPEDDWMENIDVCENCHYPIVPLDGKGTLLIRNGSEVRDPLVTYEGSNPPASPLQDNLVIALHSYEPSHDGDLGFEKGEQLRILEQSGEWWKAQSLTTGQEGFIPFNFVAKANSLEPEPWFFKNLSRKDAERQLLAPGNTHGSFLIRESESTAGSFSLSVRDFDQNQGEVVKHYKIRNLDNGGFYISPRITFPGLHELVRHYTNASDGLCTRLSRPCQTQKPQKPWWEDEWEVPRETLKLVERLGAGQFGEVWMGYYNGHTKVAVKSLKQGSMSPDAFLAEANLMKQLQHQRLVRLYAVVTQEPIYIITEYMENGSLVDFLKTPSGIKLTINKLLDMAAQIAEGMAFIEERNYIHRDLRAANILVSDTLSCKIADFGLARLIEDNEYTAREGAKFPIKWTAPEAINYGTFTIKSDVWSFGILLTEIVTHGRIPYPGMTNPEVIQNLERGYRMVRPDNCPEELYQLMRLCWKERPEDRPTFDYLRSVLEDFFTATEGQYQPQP

CC[C@H](C)[C@H](NC(=O)[C@H](CCC(=O)O)NC(=O)[C@H](CCC(=O)O)NC(=O)[C@H](Cc1ccc(OP(=O)(O)O)cc1)NC(C)=O)C(=O)NC
IC50: 2 µM

CC[C@H](C)[C@H](NC(=O)[C@H](CCC(=O)O)NC(=O)[C@H](CCC(=O)O)NC(=O)[C@H](Cc1ccc(OP(=O)(O)O)cc1)NC(C)=O)C(=O)N1CCC[C@@H]1C(=O)NC
IC50: 1.6 µM

CC(=O)N[C@@H](Cc1ccc(OP(=O)(O)O)cc1)C(=O)N[C@H]1CCC(=O)N2CCC[C@@H](C(=O)NCC3CCCCC3)N2C1=O
IC50: 1.6 µM

CC(=O)N[C@@H](Cc1ccc(OP(=O)(O)O)cc1)C(=O)N[C@H]1CCC(=O)N2CCC[C@@H](C(=O)NC3CCc4ccccc43)N2C1=O (stereo partly specified)
IC50: 1.2 µM

CCCCNC(=O)[C@@H]1CCCN2C(=O)CC[C@H](NC(=O)[C@H](Cc3ccc(OP(=O)(O)O)cc3)NC(C)=O)C(=O)N12
IC50: 1.9 µM

CCCCCNC(=O)[C@@H]1CCCN2C(=O)CC[C@H](NC(=O)[C@H](Cc3ccc(OP(=O)(O)O)cc3)NC(C)=O)C(=O)N12
IC50: 1.8 µM

CC(=O)N[C@@H](Cc1ccc(OP(=O)(O)O)cc1)C(=O)N[C@H]1CCC(=O)N2CCC[C@@H](C(=O)N[C@H]3C[C@@H](C(=O)O)c4ccccc43)N2C1=O
IC50: 2.8 µM

CC(=O)N[C@@H](Cc1ccc(OP(=O)(O)O)cc1)C(=O)N[C@H]1CCC(=O)N2CCC[C@@H](C(=O)N[C@H]3C[C@H](C(=O)O)c4ccccc43)N2C1=O
IC50: 2 µM

CC(=O)N[C@@H](Cc1ccc(OP(=O)(O)O)cc1)C(=O)N[C@H]1CCC(=O)N2CCC[C@@H](C(=O)NCc3cccc4ccccc34)N2C1=O
IC50: 1.9 µM

CC(=O)N[C@@H](Cc1ccc(OP(=O)(O)O)cc1)C(=O)N[C@H]1CCC(=O)N2CCC[C@@H](C(=O)NCc3ccc(Cl)cc3)N2C1=O
IC50: 0.4 µM

CC[C@H](C)[C@H](NC(=O)[C@@H]1CCCN2C(=O)CC[C@H](NC(=O)[C@H](Cc3ccc(OP(=O)(O)O)cc3)NC(C)=O)C(=O)N12)C(=O)NC
IC50: 1.6 µM

CC(=O)N[C@@H](Cc1ccc(OP(=O)(O)O)cc1)C(=O)N[C@H]1CCC(=O)N2CCC[C@@H](C(=O)NCc3ccc(O)cc3)N2C1=O
IC50: 10 µM

CC(=O)N[C@@H](Cc1ccc(OP(=O)(O)O)cc1)C(=O)N[C@H]1CCC(=O)N2CCC[C@@H](C(=O)Nc3cccc4ccccc34)N2C1=O
IC50: 1.1 µM

CC(=O)N[C@@H](Cc1ccc(OP(=O)(O)O)cc1)C(=O)N[C@H]1CCC(=O)N2CCC[C@@H](C(=O)N[C@@H]3C[C@H](C(=O)O)c4ccccc43)N2C1=O
IC50: 0.03 µM

CC(=O)N[C@@H](Cc1ccc(OP(=O)(O)O)cc1)C(=O)N[C@H]1CCC(=O)N2CCC[C@@H](C(=O)NCC(C)(C)C)N2C1=O
IC50: 1.8 µM

CC(=O)N[C@@H](Cc1ccc(OP(=O)(O)O)cc1)C(=O)N[C@H]1CCC(=O)N2CCC[C@@H](C(=O)NCc3ccccc3)N2C1=O
IC50: 1.5 µM

CCCNC(=O)[C@@H]1CCCN2C(=O)CC[C@H](NC(=O)[C@H](Cc3ccc(OP(=O)(O)O)cc3)NC(C)=O)C(=O)N12
IC50: 6 µM

CC(=O)N[C@@H](Cc1ccc(OP(=O)(O)O)cc1)C(=O)N[C@H]1CCC(=O)N2CCC[C@@H](C(=O)N[C@@H]3C[C@@H](C(=O)O)c4ccccc43)N2C1=O
IC50: 0.1 µM

CC[C@@H](C)CNC(=O)[C@@H]1CCCN2C(=O)CC[C@H](NC(=O)[C@H](Cc3ccc(OP(=O)(O)O)cc3)NC(C)=O)C(=O)N12
IC50: 1.2 µM

CC(=O)N[C@@H](Cc1ccc(OP(=O)(O)O)cc1)C(=O)N[C@H]1CCC(=O)N2CCC[C@@H](C(=O)NCC34CC5CC(CC(C5)C3)C4)N2C1=O
IC50: 1.1 µM

CCNC(=O)[C@@H]1CCCN2C(=O)CC[C@H](NC(=O)[C@H](Cc3ccc(OP(=O)(O)O)cc3)NC(C)=O)C(=O)N12
IC50: 8.5 µM

CNC(=O)[C@H](CCC(=O)O)NC(=O)[C@H](CCC(=O)O)NC(=O)[C@H](Cc1ccc(OP(=O)(O)O)cc1)NC(C)=O (Ac-[pY]-Glu-Glu-NHMe)
IC50: 17 µM

CNC(=O)[C@H](CCC(=O)O)NC(=O)[C@H](Cc1ccc(OP(=O)(O)O)cc1)NC(C)=O (Ac-[pY]-Glu-NHMe)
IC50: 350 µM

CC[C@H](C)[C@H](NC(=O)[C@@H]1CCCN1C(=O)[C@@H](NC(=O)[C@H](CCC(=O)O)NC(=O)[C@H](CCC(=O)O)NC(=O)[C@H](Cc1ccc(OP(=O)(O)O)cc1)NC(=O)[C@H](CCC(N)=O)NC(=O)[C@@H]1CCCN1C(=O)[C@@H](N)CCC(=O)O)[C@@H](C)CC)C(=O)N[C@@H](Cc1ccc(O)cc1)C(=O)N[C@@H](CC(C)C)C(=O)O (H-EPQ[pY]EEIPIYL-OH)
IC50: 0.36 µM

CC(=O)N[C@@H](Cc1ccc(OP(=O)(O)O)cc1)C(=O)N[C@H]1CCC(=O)N2CCC[C@@H](C(=O)NC3CC(C(=O)O)c4ccccc43)N2C1=O (stereo in doubt; 34)
IC50: 7.7 µM

CC(=O)N[C@@H](Cc1ccc(OP(=O)(O)O)cc1)C(=O)N[C@H]1CCC(=O)N2CCC[C@@H](C(=O)NC3CC(C(=O)O)c4ccccc43)N2C1=O (stereo in doubt; 35)
IC50: 7.3 µM
